In this series the test system is EGFP. To be noted: for Basal expression levels (%): GFP(%): median green fluorescence of transfected vs untransfected cells in same well, without ligand, HEK293T tTA-d2EGFP; for η (dynamic range): ratio of GFP(%) at high (3 mM) and low (1 μM) theophylline concentrations. As to the method: The functionality of shRNA switches was assessed in mammalian cell culture. Applicants transiently transfected plasmids harboring S1 and various switch controls transcribed from a U6 promoter into HEK293T cells stably expressing EGFP (Abbas-Terki et al, 2002).
In this example, Applicants systematically evaluated the tuning capabilities of shRNA switches with the aid of a mathematical model relating ligand concentration and target gene expression levels. Standard model parameters were incorporated to represent each chemical step from the proposed mechanism (Example 7). […] These assumptions yield the following relationship between relative expression levels of the target gene (f; output) and exogenous ligand concentration (L; input): f=1−e·fshRNA[1+KComp(1+KApt·L)]^−h, (1)
The power of this model lies in the ability to calculate realistic parameter values from a minimal set of experiments: fshRNA can be found in one experiment by measuring the relative knockdown of the target gene induced by an shRNA that contributes the shRNA stem, e can be calculated from basal expression levels from a few shRNA switches that strongly prefer the active conformation, and h can be calculated by generating a ligand response curve with one shRNA switch—as long as administration of the highest ligand concentration results in negligible knockdown of the target gene. The remaining model parameters, KComp and KApt, can be found from the same response curve used to calculate […], since varying KApt only changes the EC50 while varying KComp changes both EC50 and basal expression levels. A summary of the model parameters and how values are experimentally obtained are included in Table III below.
To investigate the validity of the model, Applicants experimentally determined model parameter values as described above: fshRNA was equated to the knockdown achieved with the original shRNA targeting EGFP (sh); e was calculated from the average basal expression levels produced by shRNA switches S5, S7, S9, and S10; and KComp, KApt, and h were determined by a model fit of the theophylline response curve for S1. […] The EC50 is related to KApt and KComp according to the following: EC50=(1+KComp^−1)KApt^−1, (4)
Cell culture and transfection. All cells were maintained at 37° C. in a 5% CO2-humidified incubator. HEK293T, HEK293, HeLa, and HEK293T tTA-d2EGFP cells were maintained in minimal essential medium (MEM) alpha media (Invitrogen) supplemented with 10% fetal bovine serum (FBS) (Invitrogen), whereas MDA-MB-231 cells were maintained in RMPI 1640 with glutamine (Invitrogen) supplemented with 10% FBS. Cells were transfected one day after seeding using Fugene 6 (Roche) according to the manufacturer's instructions, followed by the immediate addition of ligand. HEK293T tTA-d2EGFP were transfected with shRNA vector (250 ng), whereas cells lacking endogenous GFP were cotransfected with shRNA vector (250 ng) and the pcDNA3.1(+) (Invitrogen) harboring the d2EGFP gene (25 ng) (Clontech). One day post-transfection the media and ligand were replaced. Transfected cells were collected three days post-transfection for flow cytometry analysis.
Cell fluorescence analysis. Three days post-transfection, cells were trypsinized and subjected to flow cytometry analysis using the Cell Lab Quanta SC MPL (Beckman Coulter). Cells were first gated twice for (1) viability as assessed by electronic volume (EV) versus side scatter (SS) and (2) green fluorescence above autofluorescence to remove a nonfluorescent subpopulation.

Experimental findings from patent publication US8367815B2, “Modular polynucleotides for ligand-controlled regulatory systems” (California Institute of Technology, priority 2007, dated 2013) are described below.

“S10: EGFP shRNA switch, larger theophylline aptamer, combined switching strand changes from S4; Table I (pCS808) (CTCGATACCAGCATCGACTCTTCGATGCCCTTGGCAGCGAGCTGACCCTGACTAGA)”: the “Basal expression levels (%)” value came to 29.4% and the “η (dynamic range)” value was 3.60.
On the same counts, the results for “S11: EGFP shRNA switch with theophylline aptamer variant (shorter aptamer stem); Table I (pCS634) (CTCGAGATACCAGCCGAAAGGCCCTTGGCAGCTCGGGCTGACCCTGACTAGA)” are 20.0% and 4.20.
On the same counts, the results for “S12: EGFP shRNA switch with theophylline aptamer variant (shorter aptamer stem); Table I (pCS635) (CTCGAGATACCACCGAAAGGCCTTGGCAGCTCGGGCTGACCCTGACTAGA)” are 13.4% and 4.06.
On the same counts, the results for “S13: optimized EGFP shRNA switch, smaller theophylline aptamer; Table I (pCS911) (CTCGAGATACCAGCCGAAAGGCCCTTGGCAGCTCGGGCTGACCCTGCTAGA)” are 16.7% and 5.61.
Consider “S14: EGFP shRNA switch, smaller theophylline aptamer; Table I (pCS908) (CTCGATACCAGCCGAAAGGCCCTTGGCAGCGAGCTGACCCTGCTAGA)”, for which the “Basal expression levels (%)” value amounted to 14.3% and the “η (dynamic range)” value was determined as 2.86.
The corresponding values for “S15: EGFP shRNA switch, smaller theophylline aptamer; Table I (pC5909) (CTCGATACCAGCCGAAAGGCCCTTGGCAGCGGGCTGACCCTGCTAGA)” are 11.2% and 2.56.
The corresponding values for “S16: EGFP shRNA switch, smaller theophylline aptamer; Table I (pCS910) (CTCGATACCAGCCGAAAGGCCCTTGGCAGCGAGCTGACCCTGACTAGA)” are 21.7% and 3.85.
For the substance “S17: EGFP shRNA switch, smaller theophylline aptamer; Table I (pCS941) (CTCGAGATACCAGCCGAAAGGCCCTTGGCAGCTCGAGCTGACCCTGCTAGA)”, the “Basal expression levels (%)” value is 17.5% and the “η (dynamic range)” value was 3.12.
The corresponding values for “S18: EGFP shRNA switch, smaller theophylline aptamer; Table I (pCS942) (CTCGAGATACCAGCCGAAAGGCCCTTGGCAGCTCGAGCTGACCCTACTAGA)” are 19.5% and 3.89.
The corresponding values for “S19: EGFP shRNA switch, smaller theophylline aptamer; Table I (pCS1001) (CTCGAGATACCAGCCGAAAGGCCCTTGGCAGCTCGGGCTGACCCTGAACTAGA)” are 38.3% and 2.38.
On the same counts, the results for “S20: EGFP shRNA switch, smaller theophylline aptamer; Table I (pCS1002) (CTCGAGATACCAGCCGAAAGGCCCTTGGCAGCTCGGGCTGACCCTGAAGCTAGA)” are 49.8% and 1.75.
On to “S21: EGFP shRNA switch, smaller theophylline aptamer; Table I (pCS1003) (CTCGAGATACCAGCCGAAAGGCCCTTGGCAGCTCGGGCTGACCCTGGCTAGA)”, for which the “Basal expression levels (%)” value worked out at 10.8% and the “η (dynamic range)” value stood at 2.52.
In the case of “S22: EGFP shRNA switch, smaller theophylline aptamer; Table I (pCS1004) (CTCGATACCAGCCGAAAGGCCCTTGGCAGCGAGCTGACCCTGAACTAGA)”, the “Basal expression levels (%)” value is listed as 35.0% and the “η (dynamic range)” value is reported as 2.73.
